{
  "source": "patent US20040192641A1",
  "about": "“Special preparation of anticancer drugs made by novel nanotechnology” (priority 2003, published 2004)",
  "key": {"[1]": {"tested_on": "stem cells of bone marrow", "test": "Hemopoietic system: CFU-S in mice treated with cyclophosphamide", "assay_type": "in vivo", "conditions": "mice treated with CY with or without PK", "from_the_text": "Effects of PK on hemopoietic system were investigated."}, "white blood cells": {"tested_on": "white blood cells", "test": "White blood cells assay", "assay_type": "in vivo, mice", "conditions": "time of treatment 10 days", "protocol": "(§1) Male mice weight 18-20 g were used in the experiments and were divided into treated (PK) and control groups. The dosage of PK was 25 mg/kg injected intraperitoneally. The control mice were injected with same volume of normal saline. These injections were repeated daily for 5 days, both treated and control group were injected intraperitoneally with CY. The dosage of CY is 4.5 mg/kg.\nAction of PK and CY on white blood cells was investigated by means of white blood cells assay. PK protected white blood cells and phagocytosis from the killing effect of CY. The dosage of PK and CY is the same as in Example 4. Time of treatment is 10 days."}, "Interleukin-2 (rIL-2)": {"tested_on": "Interleukin-2 (rIL-2)", "test": "Effect on Interleukin-2", "assay_type": "in vivo, mice", "conditions": "PK and CY as in Example 4", "from_the_text": "The method of determination rIL-2 was as same as Example 4."}, "peritoneal macrophage": {"tested_on": "peritoneal macrophage", "test": "Phagocytosis of peritoneal macrophage (chick red blood cells)", "assay_type": "in vivo, mice", "conditions": "macrophages with phagocytized chick red blood cells per 100; PK 25 mg/kg i.p. daily 5 days, CY 4.5 mg/kg", "protocol": "as §1\nAdded 0.02 ml of 5% washed chick red blood cell suspension to 0.5 ml of the peritoneal exudates. Shook gently to mix and incubate at 37° C. for 5 minutes. Dipped two cover slips, closed to each other, in the above mixture and incubated for 30 minutes for the migration of the macrophages along the cover slips, fixed and stained with Sharma stain. Examined microscopically for:\nPhagocytic rate—number of macrophages with phagocytized chick red blood cells per 100 macrophages counted. Concentration of PK and CY is the same as Example 2. Pharmacological effects are as illustrated by the following table."}, "lymphocytes": {"tested_on": "lymphocytes", "test": "Lymphoblastic transformation, 3H-TdR liquid scintillation assay", "assay_type": "in vivo, mice", "conditions": "3H-TdR incorporation; PK and CY as in Example 4", "protocol": "By means of ^3H-TdR liquid scintillation assay technique, the action of PK on lymphoblastic transformation was investigated method:\n(1) Experimental procedure of animal is the same as in Example 4.\n(2) Lemphoblastic transformation test:\nI. Reagents and Conditions for Cell Culture\na. Culture media—RPMI 1640, medium 199 minimal essential medium (Eagle).\nb. Buffer—Hepes buffer, the final concentration at 37° C. was 25 mM, to maintain the pH of the medium at 7.31.\nc. Serum—generally 15-205 fetal bovine serum was incorporated, for lymphocytes from mice, 5% was used.\nd. Gaseous phase—5% CO2 in air.\ne. Cell concentration—generally 1-2 c 10^6/ml.\nf. Stimulants—20 μl/ml for phytohemagglutinin containing polysaccharide (PHA-M) or 10 μl/ml for polysaccharide-free purified phytohemagglutinin (PHA-P).\nII. Measured by Liquid Scintillation\na. The conditions of cell culture are same as above. ^3H-TdR was added after 48 hours of incubation at a final concentration of 1 μCi/ml and continued the incubation for 24 hours.\nb. Washed the cells twice with cold normal saline and the erythrocytes were lysed. The intact lymphocytes were again washed once with cold saline. Spun down the lymphocytes and added 2 ml of 10% trichloroacetic acid to precipitate the protein. Washed twice with normal saline. […]\nc. Added 4 ml of scintillation fluid to 0.1 ml of the final sample and counted in a liquid scintillation counter. […]"}, "[2]": {"test": "Radiolabelled nanoparticle experiment: circulation of 3H-HHT in blood", "assay_type": "in vivo, mice", "protocol": "Mice were used in this experiment. […]\nAfter injection of radioactive ^3H-HHT or PK-^3H-HHT-NP, blood-associated radioactivity was determined.\n1 ml of sample of blood was ultracentrifuged at 100,000×g for 1 hour. After discarding the supernatant, the sediment was dispersed again by mechanical stirring in 1.5 ml of distilled water. 100 μl of the sediment or supernatant were then added to 10 ml of scintillation liquid solution. After weighing, the radioactivity of the tissue samples was measured by a scintillation counter."}},
  "data": [
    {"compound": "O=P1(N(CCCl)CCCl)NCCCO1", "note": "(centres unmarked) [CY, cyclophosphamide]", "values": [
      {"measurement": "Mean (CFU-S ± SD)", "setting": "[1]", "value": "7.6 ± 1.1"},
      {"measurement": "Phagocytic (rate ± SD)", "setting": "white blood cells", "value": "6.0 ± 0.70"},
      {"measurement": "IL-2 (U/ml)", "setting": "Interleukin-2 (rIL-2)", "value": "47.5 ± 5.5", "unit": "U/ml"},
      {"measurement": "Phagocytic (rate ± SD)", "setting": "peritoneal macrophage", "value": "8.5 ± 0.90"},
      {"measurement": "CPM ± SD", "setting": "lymphocytes", "value": "600 ± 65", "unit": "CPM"}
    ]},
    {"compound": "COC(=O)C[C@](O)(CCCC(C)(C)O)C(=O)O[C@@H]1C(OC)=C[C@]23CCCN2CCc2cc4c(cc2[C@H]13)OCO4", "note": "[^3H-HHT (free)]", "values": [
      {"measurement": "Circulation 3H-HHT in blood", "setting": "[2]; 1 hour after administration", "value": 2400, "unit": "cpm"},
      {"measurement": "Circulation 3H-HHT in blood", "setting": "[2]; 8 hours after administration", "value": 90, "unit": "cpm"},
      {"measurement": "Circulation 3H-HHT in blood", "setting": "[2]; 24 hours after administration", "value": 60, "unit": "cpm"}
    ]}
  ]
}
